The text below walks through data of paper PMC5620609 (Pharmaceuticals, 2017).

Read-outs that look alike come from different tables or passages of the source.

The subject of one data set is SK-MEL-28. Kind of data set: NCI 60 cell line panel: SK-MEL-28. Type of data set: cell-based, human. The settings on record: Melanoma, TP53 null/mutant. From the text:
(§1) Details of the NCI 60 One Dose Screen are well known and available online.

The test system of the next data set is HOP-92. Put plainly: NCI 60 cell line panel: HOP-92. The settings on record: NSCL, TP53 null/mutant. The format is cell-based, human.
Description: as §1

For the next data set, the system named is UACC-257. Kind of data set: NCI 60 cell line panel: UACC-257. Type of data set: cell-based, human. To be noted: Melanoma, TP53 wild type.
Description: as §1

For data set [1], the system named is TP53 WT colon cancer cell line Ls174T. Kind of data set: In vitro growth inhibition (CellTiter-Glo), Ls174T. The settings on record: Homo sapiens, 72 h exposure. Type of data set: cell-based. On the procedure: Further testing was performed in colon cancer cell lines.
Cells were grown in an appropriate medium for the cell line of interest; 96 well plates of each cell line were seeded with 5000 cells per well and left overnight. Drug exposed cells were incubated at 37 °C for 72 h. At the end of the 72 h exposure period, plates were removed for the CellTiter-Glo® assay. Luminescence was recorded on a Synergy 4.0. Assays were performed in triplicate.
In general terms: In ATP-based viability assays light output follows the ATP content of the culture.

The subject of a further data set is CAKI-1. Kind of data set: NCI 60 cell line panel: CAKI-1. Type of data set: cell-based, human. To be noted: Renal cancer, TP53 wild type.
Description: as §1

In data set [2] the test system is HL-60 human leukemia (TP53 null) xenograft. The format is in vivo. As for the experimental part: (§2) Drugs were administered IV for 3 consecutive days a week for 3 weeks. HL-60 is a human leukemia cell line (TP53 null) that is part of the NCI 60 cell line panel and can be grown in nude mice.
(§3) First, 10^7 tumor cells from culture in Matrigel™ of HL-60 human leukemia or LoVo colon cancer were implanted subcutaneously in the flank of 1.75-fold the number of NCr-nu/nu mice required for the study. Study initiation began when the required number of mice had tumors of approximately: • 100 to 250 mm^3 (target group mean tumor volume of approximately 175 mm^3) for the first set of studies. • 14 to 63 mm^3 (target group mean tumor weight of approximately 30 mm^3) for the second set of studies.
(§4) Mice with tumors in the proper volume range were arbitrarily assigned to groups. Mice received test article on 3 consecutive days per week for 3 weeks. Mice were observed daily for mortality and moribundity with weights and the tumor measurements taken twice weekly. Tumor volume was determined using the formula for an ellipsoid sphere: Length × Width^2/2 = Volume (mm^3). The experiments were scheduled to last for 60 days from the day of tumor implant. Any animal whose weight decreased more than 30% from the weight on the first day of treatment or whose tumor reached 4000 mm^3 in volume, ulcerated or sloughed off, or was moribund was euthanized prior to study termination.

Data set [3] deals with LoVo colon cancer (TP53 WT) xenograft. The format is in vivo. On the procedure:
as §2, §3, §4

Another data set concerns 786-0. Kind of data set: NCI 60 cell line panel: 786-0. The format is cell-based, human. To be noted: Renal cancer, TP53 null/mutant.
Description: as §1

In general, GI50 refers to the concentration that inhibits growth by half. With `Nc1ncn([C@@H]2O[C@H](CO)[C@@H](O)C2(F)F)c(=O)n1` [NUC013, 5-aza-2′,2′-difluroro deoxycytidine], the “Growth (%) at 10 µM” value was found to be 78.46% in the data set with SK-MEL-28; 34.34% in the data set with HOP-92; 77.54% in the data set with UACC-257; 27.86% in the data set on CAKI-1; 26.29% in the data set on 786-0. Further, the GI50 in data set [1] is 1300 nM. The “median survival (MS)” value in data set [2] (HL-60 first study, NUC013 5.8 mg/kg IV, saline MS = 25 days) was 28.5 days; in data set [2] (HL-60 second study, NUC013 20 mg/kg IV, saline MS = 26.5 days), 32 days; in data set [3] (LoVo first study, NUC013 5.8 mg/kg IV), 60 days; in data set [3] (LoVo second study, NUC013 20 mg/kg IV), “undefined”; in data set [3] (LoVo second study, NUC013 40 mg/kg IV), “undefined”. Further, in data set [2] (HL-60 first study, NUC013 equimolar dose (5.8 mg/kg) IV), the “mice died or euthanized for moribundity (out of 10)” value was “none”. Further, the “tumor volume lower than saline control (maximum)” value in data set [2] (HL-60 second study, NUC013 20 mg/kg IV, study days 21 and 25) amounted to 47.8%. Moreover, the “mean tumor volume lower compared to controls” value is on record as 24.3% in data set [3] (LoVo first study, NUC013 equimolar dose (5.8 mg/kg) IV, study day 27); 50.9% in data set [3] (LoVo second study, NUC013 20 mg/kg IV, study day 30); 53.7% in data set [3] (LoVo second study, NUC013 40 mg/kg IV, study day 30).
